The target in the experiment is T1, PhoR (PhoR-GFP) (Mycobacterium tuberculosis, UniProt P71815).
T1 sequence (P71815 181-485 limits assumed): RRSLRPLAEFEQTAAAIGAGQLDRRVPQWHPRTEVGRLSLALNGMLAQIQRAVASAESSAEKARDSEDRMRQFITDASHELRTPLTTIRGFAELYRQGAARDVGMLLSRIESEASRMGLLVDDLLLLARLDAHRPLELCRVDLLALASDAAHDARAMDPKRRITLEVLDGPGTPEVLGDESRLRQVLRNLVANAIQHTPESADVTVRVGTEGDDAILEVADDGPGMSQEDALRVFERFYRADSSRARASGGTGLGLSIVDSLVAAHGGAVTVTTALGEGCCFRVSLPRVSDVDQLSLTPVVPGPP
Description: radioactive dot-blot autophosphorylation assay. It is filed as biochemical. The settings on record: read-out: % inhibition at 10 μM.

The record followed here is paper doi:10.1101/2023.12.19.571805v1 (biorxiv, 2023).

The structures appear in SMILES notation. *1 amine or outer side, *2 acyl side, *3 side chain or, on linkers, in order; H or OH if unused. Where a SMILES comes first, the peptide text is derived from it. Bridges are numbered along the chain shown (N, C = ends). Roman numbers before positions name the chains, in order. [ ]: non-standard residue; d: D form. Actinocin(9to1) = Cc1c2oc3c(C)ccc(C(=O)[*:1])c3nc-2c(C(=O)[*:2])c(N)c1=O; NMeV = CN[C@H](C(=O)O)C(C)C; Sar = CNCC(=O)O

A word on the inhibition: it is how much of the control response was suppressed.

Turning to `Cc1c2oc3c(C)ccc(C(=O)N[C@@H]4C(=O)N[C@H](C(C)C)C(=O)N5CCC[C@H]5C(=O)N(C)CC(=O)N(C)[C@@H](C(C)C)C(=O)O[C@@H]4C)c3nc-2c(C(=O)N[C@@H]2C(=O)N[C@H](C(C)C)C(=O)N3CCC[C@H]3C(=O)N(C)CC(=O)N(C)[C@@H](C(C)C)C(=O)O[C@@H]2C)c(N)c1=O` [Actinomycin D] (I: T[dV]P[Sar][NMeV] / II: T[dV]P[Sar][NMeV]; ester I:1-I:C, II:1-II:C; linker I:N-II:N via Actinocin(9to1)), the inhibition at 10 µM was more than 50%.
